Where “and” joins values, the source holds several entries; their conditions need not be identical. Equal values may be shown once.
Tests used:
[1] = Ethanol hematic concentrations and pharmacokinetics in volunteers given ethanol orally after FDP infusion (cross-over); type: in vivo, male volunteers (human)
Text: (§1) Male volunteers (ages 19 to 46, 73 kg average weight) in good conditions of health as ascertained by objective test and hematologic and biochemical analyses, participated in the investigation. None of the subjects had used drugs during the week before the study nor in the course of the study.
Each subject was given, in two sittings, with one wash-out week interval between sittings, ethanol (control) and ethanol with added fructose-1,6-diphosphate (FDP) according to an experimental cross-over design. After one night of fasting, each patient received ethanol orally, in the morning, at a rate of 0.5 g/kg body weight, as a 30% analytical grade ethyl alcohol solution in effervescent mineral water. FDP was administered at the rate of 250 mg/kg of fructose-1,6-diphosphate sodium hydrate salt in an intravenous infusion during 20 minutes (2.5 ml/kg).
(§2) From the individual data obtained in each sitting and for each subject, the values of the following parameters were calculated: maximum concentration (Cmax), time for attaining maximum concentration (Tmax), mean life of absorption (Ab t1/2), mean life of elimination (El t1/2) and area under curve zero to infinity (AUC). The ethanol and acetaldehyde concentrations were measured in the two sittings of study and the values of the pharmacokinetic parameters given above were compared by the Student's t-test for paired data, with the exception of the maximum concentration times of ethanol which were compared by the Wilcoxon test. The level of statistical significances was set at 5%.

[2] = Acetaldehyde hematic concentrations in volunteers given ethanol orally after FDP infusion (cross-over); type: in vivo, male volunteers (human); conditions: Student's t test for coupled data
Text: as §1
Each subject was given, in two sittings, with one wash-out week interval between sittings, ethanol (control) and ethanol with added fructose-1,6-diphosphate (FDP) according to an experimental cross-over design. After one night of fasting, each patient received ethanol orally, in the morning, at a rate of 0.5 g/kg body weight, as a 30% analytical grade ethyl alcohol solution in effervescent mineral water. […]
as §2, with “The level of statistical significances was set at 5%.” left out

[3] = system: patients in a state of acute drunkenness; assay: Vital signals (heart rate, arterial pressure) in patients with acute drunkenness; type: in vivo, patients (human)
Method: (§3) 28 patients were selected, 26 males and 2 females, aged 17 to 68, which had been taken to a first aid post for traumas suffered during a state of acute drunkenness (18 cases) or to phenomena resulting from that state of drunkenness (10 cases). Of the patients under observation, 18 were chronic alcoholics and 10 were subjects with no alcoholism story (Table 4).
(§4) The patients then received, at random, one rapid infusion of 15 g FDP as a 10% sodium salt solution of FDP, or a 5% (150 ml) glucose solution. 15 minutes after the completion of infusion, evaluations were repeated.
(§5) Following the first anamnestic and diagnostic checks, measurements were taken of the arterial pressure and the heart rate. Then, evaluation was made, in basal conditions, of the psychic and behavioral state (psychomotor excitement, vigilance, time-space orientation and lucidity) and the neurological state (equilibrium, forefinger-nose test, palpebral, corneal and pain reflexes). For the semiquantitative evaluation of the selected parameters, severity scales with arbitrary ratings were adopted. Evaluation of lucidity was made by using the figure repeating test.
(§6) The data obtained for each patient were compared with those obtained before the treatment by means of the mixed pattern variance analysis followed, in case of gross significance, by the Tukey's multiple comparison test. A 5% level was used as the minimum level of statistical significance.

[4] = system: patients in a state of acute drunkenness; assay: Psychic and behavioural conditions scores in patients with acute drunkenness; type: in vivo, patients (human)
Method: as §3, §4, §5, §6

[5] = system: patients in a state of acute drunkenness; assay: Impairment scores in neurologic tests in patients with acute drunkenness; type: in vivo, patients (human)
Method: as §3, §4, §5, §6

[6] = system: chronic alcoholics at a stage of detoxication; assay: Psychiatric symptoms (psychic and behavioural state scores) in chronic alcoholics at a stage of detoxication; type: in vivo, patients (human); conditions: for Motor derangement score: FDP group (20 g/day i.v. days II-VII plus nutrition), basal 1.4; for Motor derangement score / Behavioural disorders score / Conscience disorders score: p < 0.01 vs basal; for Behavioural disorders score / Conscience disorders score: FDP group; for Behavioural disorders score: basal 1.3; for Conscience disorders score: basal 1.5
Method: (§7) This study left out patients more than 70 years old or patients suffering from severe renal or cardiovascular impairment, diabetes or other pathologies (epilepsy, delirium […] could prevent evaluation of the investigated treatment. During study, which was conducted single blind, two therapeutic procedures were compared for a period of 8 days allotted as follows: one day (I) for selection and basic determinations at the time of alcohol withdrawal; six days (II-VII) for treatment; one day (VIII) for follow-up. […] Some of the patients received, days II to IV, a total parenteral nutrition (NTP) followed by hypercaloric diet during the remaining three days. During the study, no further drugs were administered except those which would be required by concomitant pathologies and which could not interfere with the nutritional state. In the patients imperatively requiring a control of psychomotor derangement during the abstinence period, chlordimethyldiazepam (2 mg/iv) was used and the daily doses thereof were recorded. On the first day the history, particularly in respect of alcoholism, was obtained. On days I, V and VIII a thorough examination of the patient's neurological and psychiatric conditions was performed. The psychic areas were evaluated by using simplified rating scales for the psychomotor derangement and the behaviour and consciousness disorders present in the alcohol withdrawal period. For the neurological evaluation, there were taken into consideration the reflexes, the exteroceptive and propioceptive sensitivities and the presence of ataxia, tremors and cramps, and semiquantitative ratings of 0 (no symptom or normal picture) to 3 (high severity symptom or no response) were assigned.

[7] = system: chronic alcoholics at a stage of detoxication; assay: Neurological symptoms (impairment scores in neurological tests) in chronic alcoholics at a stage of detoxication; type: in vivo, patients (human); conditions: for Reflexes impairment score: basal 1.6, control 1.2; for Ataxia-tremors cramps impairment score: basal 1.7; for Sensitivity impairment score: basal 3.0
Method: as §7

[8] = Tolerability in patients with acute drunkenness; conditions: human, in vivo
Method: as §3, §4

[9] = no test described; cited from earlier work

SMILES: O=C(COP(=O)(O)O)[C@@H](O)[C@H](O)[C@H](O)COP(=O)(O)O [FDP, fructose-1,6-diphosphate]
- Ethanol AUC in the 0-90 min range, lower following FDP ([1]; 0-90 min, vs control (FIG. 1)): 40%
- Percent difference of ethanol concentration after FDP with respect to control (lower) ([1]; 15 min): 70%
- Percent difference of ethanol concentration after FDP with respect to control (lower) ([1]; 30 min): 64%
- Percent difference of ethanol concentration after FDP with respect to control (lower) ([1]; 60 min): 31%
- Ethanol AUC (zero to infinity), average ([1]; FDP session, Table 2, n = 8, SD 976, control 2229): 2695 mmol·min/L
- Ethanol AUC (zero to infinity), average ([1]; FDP sitting, control 2695): 2229 mmol·min/L
- Significance of the difference in ethanol AUC vs control ([1]; Student's t test, paired): no significant differences
- Significance of the difference in ethanol maximum concentration vs control ([1]; Student's t test, paired): the observed difference did not attain statistical significance
- Difference in the alcohol absorption rate ([1]; from absorption half-life vs control, p<0.05): 66%
- Time for attaining maximum ethanol concentration, longer than control ([1]; p<0.05 vs control sitting): 120%
- Significance of acetaldehyde concentration differences, FDP vs control [2]: no statistically significant differences at any of the considered times and ns
- Arterial diastolic pressure, final ([3]; 15 min after infusion of 15 g FDP, basal 67.9 (text 68), p < 0.05 vs basal, glucose 69.6 to 69.6): 75.3 mm Hg and 75 mm Hg
- Cardiac frequency, final ([3]; 15 min after infusion of 15 g FDP, basal 103.1, p < 0.01 vs basal, glucose 101.7 to 96.9): 94.4 beats/minute
- Arterial sistolic pressure, final ([3]; 15 min after infusion of 15 g FDP, basal 113.2, glucose 113.1 to 110.8): 116.5 mm Hg
- Blood pressure and heart rate in subjects with basal hypertension accompanied by tachycardia ([3]; after FDP): permits the normal values of both blood pressure and heart rate to be restored
- Heart rate, final ([3]; after FDP, from 103 basal, significant): 94 pulsations/minute
- Motor derangement score, final ([4]; 15 min after infusion of 15 g FDP, basal 1.1, p < 0.01 vs basal, glucose 1.0 to 0.7): 0.3
- Vigilance impairment score, final ([4]; 15 min after infusion of 15 g FDP, basal 1.1, p < 0.01 vs basal, glucose 1.2 to 1.0 (p < 0.05 vs final FDP)): 0.5
- Lucidity level score, final ([4]; 15 min after infusion of 15 g FDP, basal 1.6, p < 0.01 vs basal, glucose 1.5 to 2.5): 3.6
- Orientation impairment score, final ([4]; 15 min after infusion of 15 g FDP, basal 4.5, p < 0.01 vs basal, glucose 4.3 to 3.4 (p < 0.05 vs final FDP)): 1.7
- Comparison of treatments, final values for vigilance and orientation ([4]; FDP vs glucose solution): significant difference between FDP and glucose solution
- State of psychomotor disorder ([4]; after FDP): tends towards complete disappearance
- Vigilance, orientation and mental lucidity ([4]; after FDP): notably improved, with the tendency being towards return to normal levels
- Psychic and behavioural state, all parameters ([4]; after FDP vs basal): all of the parameters show to be positively and significantly influenced
- Corneal reflex impairment score, final ([5]; 15 min after infusion of 15 g FDP, basal 0.1, glucose 0.1 to 0.1): 0.0
- Palpebral reflex impairment score, final ([5]; 15 min after infusion of 15 g FDP, basal 0.4, p < 0.05 vs basal, glucose 0.5 to 0.1): 0.0
- Pain reflex impairment score, final ([5]; 15 min after infusion of 15 g FDP, basal 0.9, p < 0.05 vs basal, glucose 0.5 to 0.2): 0.3
- "Forefinger-nose" test impairment score, final ([5]; 15 min after infusion of 15 g FDP, basal 1.3, p < 0.01 vs basal, glucose 0.9 to 0.7): 0.4
- Equilibrium impairment score, final ([5]; 15 min after infusion of 15 g FDP, basal 1.6, p < 0.01 vs basal, glucose 1.1 to 0.9): 1.1
- Postural equilibrium, forefinger-nose test, palpebral and pain reflexes ([5]; after FDP): significantly improved
- Corneal reflex in patients with basal impairment ([5]; at the end of FDP treatment, all the patients): normal state in this respect at the end of FDP treatment
- Motor derangement score ([6]; day V, control 0.8): 0.6
- Motor derangement score ([6]; day VIII, control 0.5): 0.4
- Behavioural disorders score ([6]; day V, control 0.7): 0.4
- Conscience disorders score ([6]; day V, control 0.6): 0.3
- Behavioural disorders score ([6]; day VIII, control 0.5): 0.3
- Conscience disorders score ([6]; day VIII, control 0.5): 0.2
- Consumption of chlordimethyldiazepam ([6]; FDP vs no FDP): higher consumption of chlordimethyldiazepam required by patients not having get FDP
- Psychiatric symptoms, improvement ([6]; day V, FDP treated patients only, p<0.01): improvement of all of the considered symptoms
- Consciousness disorders ([6]; eighth day, FDP treated patients, not in control group): the consciousness disorders did disappear in FDP treated patients
- Psychiatric symptomatology connected with the alcohol withdrawal ([6]; patients treated with FDP): disappeared after only five days of treatment
- Reflexes impairment score ([7]; FDP group (20 g/day i.v. days II-VII plus nutrition), day V): 1.2
- Ataxia-tremors cramps impairment score ([7]; FDP group, day V, p < 0.01 vs basal, control 0.9): 1.0
- Sensitivity impairment score ([7]; FDP group, day V, p < 0.01 vs basal, control 2.4): 2.1
- Reflexes impairment score ([7]; FDP group, day VIII, p < 0.01 vs basal): 1.0
- Ataxia-tremors cramps impairment score ([7]; FDP group, day VIII, p < 0.01 vs basal, control 0.8): 0.5
- Sensitivity impairment score ([7]; FDP group, day VIII, p < 0.01 vs basal, control 1.7): 1.8
- Reflexes, recovery ([7]; day VIII, only in FDP treated group): the reflexes recovered to normal
- Remaining neurological symptomatology, FDP vs control ([7]; evolutive tendency in the course of the study): does not evidence any difference betwen the two treatments
- Tolerability [8]: good tolerability
- Elimination half-life of the FDP [9]: less than 15 minutes

Source: US4870057A, “Use of fructose-1,6-diphosphate in the treatment of acute alcoholic intoxication and chronic ethylism, and related pharmaceutical compositions” (priority 1988, dated 1989)
